{"source": "ChEMBL document CHEMBL1687737", "about": "“Potent activity of a nucleoside reverse transcriptase inhibitor, 4'-ethynyl-2-fluoro-2'-deoxyadenosine, against human immunodeficiency virus type 1 infection in a model using human peripheral blood mononuclear cell-transplanted NOD/SCID Janus kinase 3 knockout mice” (Antimicrob Agents Chemother, 2009)", "key": {"[1]": {"tested_on": "Human immunodeficiency virus 1", "test": "Antiviral activity against HIV1 JR-FL infected in human PBMC transplanted NOD/SCID/Janus kinase 3 knockout mouse assessed as decrease of p24 expressing human CD4+ cells in PBMC at 0.5 mg/kg, ip bid for 15 days by flow cytometry", "type": "functional, organism-based", "set-up": "dose 0.5 mg/kg"}, "[2]": {"tested_on": "Human immunodeficiency virus 1", "test": "Antiviral activity against HIV1 JR-FL infected in human PBMC transplanted NOD/SCID/Janus kinase 3 knockout mouse assessed as increase of CD4/CD8 ratio in peritoneal cavity at 0.5 mg/kg, ip bid for 15 days by flow cytometry", "type": "functional, organism-based", "set-up": "dose 0.5 mg/kg"}, "[3]": {"tested_on": "Mus musculus", "test": "Toxicity in BALB/c mouse assessed as change in body weight at 50 mg/kg, ip bid for 14 days", "type": "organism-based", "set-up": "dose 50 mg/kg, route intraperitoneal", "conditions": "in vivo, 336 h"}, "[4]": {"tested_on": "Mus musculus", "test": "Toxicity in HIV1 JR-FL infected human PBMC transplanted NOD/SCID/Janus kinase 3 knockout mouse assessed as adverse effect at 0.5 mg/kg, ip bid for 15 days", "type": "organism-based", "set-up": "dose 0.5 mg/kg, route intraperitoneal", "conditions": "in vivo, 360 h"}, "[5]": {"tested_on": "Mus musculus", "test": "Toxicity in BALB/c mouse assessed as change in body weight at 5 mg/kg, ip bid for 14 days", "type": "organism-based", "set-up": "dose 5 mg/kg, route intraperitoneal", "conditions": "in vivo, 336 h"}, "[6]": {"test": "Drug level in BALB/c mouse blood at 20 mg/kg, ip", "type": "ADME, organism-based", "set-up": "dose 20 mg/kg, route intraperitoneal", "conditions": "read-out: Drug uptake"}, "[7]": {"tested_on": "Human immunodeficiency virus 1", "test": "Antiviral activity against HIV1 JR-FL infected in human PBMC transplanted NOD/SCID/Janus kinase 3 knockout mouse assessed as decrease of viral p24 antigen level in plasma at 0.5 mg/kg, ip bid for 15 days by ELISA", "type": "functional", "conditions": "route intraperitoneal"}, "[8]": {"test": "Tmax in BALB/c mouse at 20 mg/kg, ip", "type": "ADME, organism-based", "set-up": "dose 20 mg/kg, route intraperitoneal", "conditions": "in vivo"}, "[9]": {"tested_on": "Mus musculus", "test": "Toxicity in BALB/c mouse assessed as acute whole-body effect at 50 mg/kg, ip bid for 14 days", "type": "organism-based", "set-up": "dose 50 mg/kg, route intraperitoneal", "conditions": "in vivo, 336 h"}, "[10]": {"tested_on": "Mus musculus", "test": "Toxicity in BALB/c mouse assessed as ruffled fur at 50 mg/kg, ip bid for 14 days", "type": "organism-based", "set-up": "dose 50 mg/kg, route intraperitoneal", "conditions": "in vivo, 336 h"}, "[11]": {"tested_on": "Mus musculus", "test": "Toxicity in BALB/c mouse assessed as subacute whole-body effect at 50 mg/kg, ip bid for 14 days", "type": "organism-based", "set-up": "dose 50 mg/kg, route intraperitoneal", "conditions": "in vivo, 336 h"}, "[12]": {"tested_on": "Mus musculus", "test": "Toxicity in BALB/c mouse assessed as subacute whole-body effect at 5 mg/kg, ip bid for 14 days", "type": "organism-based", "set-up": "dose 5 mg/kg, route intraperitoneal", "conditions": "in vivo, 336 h"}, "[13]": {"tested_on": "Human immunodeficiency virus 1", "test": "Antiviral activity against HIV1 JR-FL infected in human PBMC transplanted NOD/SCID/Janus kinase 3 knockout mouse assessed as increase of CD4/CD8 ratio in PBMC at 0.5 mg/kg, ip bid for 15 days by flow cytometry", "type": "functional", "conditions": "route intraperitoneal"}, "[14]": {"tested_on": "Human immunodeficiency virus 1", "test": "Antiviral activity against HIV1 JR-FL infected in human PBMC transplanted NOD/SCID/Janus kinase 3 knockout mouse assessed as increase of CD4/CD8 ratio in spleen at 0.5 mg/kg, ip bid for 15 days by flow cytometry", "type": "functional, organism-based", "set-up": "dose 0.5 mg/kg"}, "[15]": {"tested_on": "Human immunodeficiency virus 1", "test": "Antiviral activity against HIV1 JR-FL infected in human PBMC transplanted NOD/SCID/Janus kinase 3 knockout mouse assessed as decrease of viremia in plasma at 0.5 mg/kg, ip bid for 15 days by ELISA", "type": "functional, organism-based", "set-up": "dose 0.5 mg/kg"}, "[16]": {"tested_on": "Human immunodeficiency virus 1", "test": "Antiviral activity against HIV1 JR-FL infected in human PBMC transplanted NOD/SCID/Janus kinase 3 knockout mouse assessed as decrease of p24 expressing human CD3+ cells in spleen cells at 0.5 mg/kg, ip bid for 15 days by flow cytometry", "type": "functional", "set-up": "scale not given: the % may be the effect or the level left", "conditions": "route intraperitoneal"}, "[17]": {"tested_on": "Human immunodeficiency virus 1", "test": "Antiviral activity against HIV1 JR-FL infected in human PBMC transplanted NOD/SCID/Janus kinase 3 knockout mouse assessed as decrease of p24 expressing human CD4+ cells in peritoneal cavity cells at 0.5 mg/kg, ip bid for 15 days by flow cytometry", "type": "functional, organism-based", "set-up": "dose 0.5 mg/kg"}, "[18]": {"tested_on": "Mus musculus", "test": "Toxicity in BALB/c mouse assessed as acute whole-body effect at 5 mg/kg, ip bid for 14 days", "type": "organism-based", "set-up": "dose 5 mg/kg, route intraperitoneal", "conditions": "in vivo, 336 h"}}, "note": "Calls of active or inactive are those of the source. The calls are words filed in the database; no cut-off is given here.", "data": [{"smiles": "C#C[C@]1(CO)O[C@@H](n2cnc3c(N)nc(F)nc32)C[C@@H]1O", "note": "[ISLATRAVIR]", "values": [{"measurement": "Activity", "setting": "[1]", "value": "Active"}, {"measurement": "Activity", "setting": "[2]", "value": "Active"}, {"measurement": "Activity", "setting": "[3]", "value": "Non-toxic"}, {"measurement": "Activity", "setting": "[4]", "value": "Non-toxic"}, {"measurement": "Activity", "setting": "[5]", "value": "Non-toxic"}, {"measurement": "AUC", "setting": "[6]", "value": 4990, "unit": "ng·h/mL"}, {"measurement": "Activity", "setting": "[7]", "value": 2.1, "unit": "×10² pg/ml"}, {"measurement": "Tmax", "setting": "[8]", "value": 10, "unit": "min"}, {"measurement": "Activity", "setting": "[9]", "value": "Non-toxic"}, {"measurement": "Activity", "setting": "[10]", "value": "Non-toxic"}, {"measurement": "Activity", "setting": "[11]", "value": "Non-toxic"}, {"measurement": "Activity", "setting": "[12]", "value": "Non-toxic"}, {"measurement": "Ratio", "setting": "[13]", "value": 0.65}, {"measurement": "Activity", "setting": "[14]", "value": "Active"}, {"measurement": "Activity", "setting": "[15]", "value": "Active"}, {"measurement": "Activity", "setting": "[16]", "value": 0.11, "unit": "%"}, {"measurement": "Activity", "setting": "[17]", "value": "Active"}, {"measurement": "Activity", "setting": "[18]", "value": "Non-toxic"}]}]}
